Tests used:
Assay in all cases: Antibacterial activity, MIC
Type in all cases: cell-based
E. coli = conditions: laboratory-sensitive strain
MDR E. coli = conditions: clinical MDR isolate
K. pneumoniae = conditions: laboratory-sensitive strain
MDR K. pneumoniae = conditions: clinical MDR isolate
S. epidermidis = conditions: laboratory-sensitive strain
MDR S. epidermidis = conditions: clinical MDR isolate
S. aureus = conditions: laboratory-sensitive strain
MDR S. aureus = conditions: clinical MDR isolate

Substance | MIC, E.coli (E. coli) [µg/mL] | MIC, MDR E.coli (MDR E. coli) [µg/mL] | MIC, K. pneumoniae (K. pneumoniae) [µg/mL] | MIC, MDR K. pneumoniae (MDR K. pneumoniae) [µg/mL] | MIC, S. epidermidis (S. epidermidis) [µg/mL] | MIC, MDR S. epidermidis (MDR S. epidermidis) [µg/mL] | MIC, S. aureus (S. aureus) [µg/mL] | MIC, MDR S. aureus (MDR S. aureus) [µg/mL] | MIC, MDR E.coli (MDR E. coli; listed as polymyxin) [µg/mL] | MIC, MDR K. pneumoniae (MDR K. pneumoniae; listed as polymyxin) [µg/mL]
Gentamicin | <2 | >128 | <2 | >128 | <2 | <2 | <2 | >128 | – | –
Penicilin | <2 | >128 | 32 | >128 | <2 | >32 | <2 | 64 | – | –
Polymyxin | 16 | 32 | <2 | 64 | 64 | >128 | >128 | >128 | > 32 | > 64
